# Experimental data from paper PMC7532004, “Site-specific effects of neurosteroids on GABAA receptor activation and desensitization” (eLife, 2020).
# Several values for one entry are separate records, joined by “and”; a condition that tells them apart may be missing. Identical values can stand only once. Like-named read-outs stand apart in the source and are kept apart here.
# How the values were obtained:
# α1(Q242L)β3 GABAAR = α1(Q242L)β3 GABAAR (UniProt P28472+P62813, Q268L); experiment: [3H]muscimol binding to HEK cell membranes, intersubunit site mutant; set-up: expressed in transfected cells; host or cells: HEK293S GnTI- (ATCC CRL-3022), transient; species or system rat α1, human β3; details: for Emax (% of control) of [3H]muscimol binding: 100% means no effect
# Method: (§1) The human α1 and β3 GABAAR subunits were subcloned into pcDNA3 for molecular manipulations and cRNA synthesis. Using QuikChange Site-Directed Mutagenesis Kit (Agilent Technologies, Santa Clara, CA), a FLAG tag was first added to the α1 subunit then an 8xHis tag was added to generate the following His-FLAG tag tandem ([…]), inserted between the fourth and fifth residues of the mature peptide. The α1 and β3 subunits were then transferred into the pcDNA4/TO and pcDNA5/TO vectors (Thermo Fisher Scientific), respectively, for tetracycline inducible expression. Transient expression was done using the GABAAR subunits rat α1FLAG ([Ueno et al., 1996]) and human β3 obtained from Geoffrey White (Neurogen, Branford, CT), each were subcloned into pcDNA3 for molecular manipulations and cRNA synthesis. Point mutations were generated using the QuikChange Site-Directed Mutagenesis Kit (Agilent) and the coding region was fully sequenced prior to use. The cDNAs were linearized with XbaI (NEB Labs, Ipswich, MA), and the cRNAs were generated using T7 mMessage mMachine (Ambion, Austin, TX).
# (§2) [^3H]muscimol-binding assays were performed using a previously described method ([Chen et al., 2019]). […] Assay tubes were incubated for 1 hr on ice in the dark. […] Membranes were collected on Whatman/GF-C glass filter papers using a Brandel cell harvester (Gaithersburg, MD). To perform [^3H]muscimol binding isotherms, 100 μg/ml aliquots of membrane protein were incubated with 0.3 nM–1 μM [^3H]muscimol for 1 hr on ice in the dark. The specific activity for [^3H]muscimol concentrations from 30 nM to 1 μM was reduced to 2 Ci/mmol by dilution with nonradioactive muscimol. The membranes were collected on Whatman/GF-B glass filter papers using a vacuum manifold. […] For [^3H]muscimol-binding experiments examining competitive interactions between neurosteroids, the combined neurosteroids (0.3 μM 3α5αP or 3 μM KK148 ±30 μM KK150) or the same volume of dimethyl sulfoxide (DMSO) were added to the membranes which were then incubated with 3 nM [^3H]muscimol on ice for 1 hr. Time courses of neurosteroid [^3H]muscimol binding enhancement were examined by adding 10 µM of neurosteroids (3α5αP, 3β5αP) to membranes that had been fully equilibrated with 3 nM [^3H]muscimol for 1 hr on ice; binding was then measured as a function of time at 1, 3, 10, 30, 60 min. The membranes were collected on Whatman/GF-B glass filter papers using a vacuum manifold. Radioactivity bound to the filters was measured by liquid scintillation spectrometry using Bio-Safe II (Research Products International, Mount Prospect, IL).
# α1β3(Y284F) GABAAR = target: T1, α1β3(Y284F) GABAAR (UniProt P28472+P62813, Y309F); experiment: [3H]muscimol binding to HEK cell membranes, β3 intrasubunit site mutant; set-up: species or system rat α1, human β3; details: for Emax (% of control) of [3H]muscimol binding: 100% means no effect
# T1 construct: expressed in transfected cells; host or cells: HEK293S GnTI- (ATCC CRL-3022), transient
# Method: as §1, §2
# α1β3 GABAAR = target: T2, α1β3 GABAAR (UniProt P28472+P62813); experiment: Two-electrode voltage clamp in Xenopus laevis oocytes, WT receptor; assay type: cell-based; details: for Potentiation of GABA-elicited currents: 0.3 μM GABA, 10 μM neurosteroid, oocytes; for % of desensitization (reduction of steady-state current): 1 mM GABA, 3β5αP 3 μM, KK148 10 μM, KK150 10 μM, WT
# T2 construct: expressed in transfected cells; host or cells: Xenopus laevis oocytes injected with cRNA (α1:β3 5:1)
# Method: The wild-type and mutant α1β3 GABAAR were expressed in oocytes from the African clawed frog (Xenopus laevis). Frogs were purchased from Xenopus 1 (Dexter, MI), and housed and cared for in a Washington University Animal Care Facility under the supervision of the Washington University Division of Comparative Medicine. Harvesting of oocytes was conducted under the Guide for the Care and Use of Laboratory Animals as adopted and promulgated by the National Institutes of Health. The animal protocol (No. 20180191) was approved by the Animal Studies Committee of Washington University in St. Louis. The oocytes were injected with a total of 12 ng cRNA. The ratio of cRNAs was 5:1 ratio (α1:β3) to minimize the expression of β3 homomeric receptors. Following injection, the oocytes were incubated in ND96 (96 mM NaCl, 2 mM KCl, 1.8 mM CaCl2, 1 mM MgCl2, 5 mM HEPES; pH 7.4) with supplements (2.5 mM Na pyruvate, 100 U/ml penicillin, 100 μg/ml streptomycin and 50 μg/ml gentamycin) at 16°C for 2 days prior to conducting electrophysiological recordings. The electrophysiological recordings were conducted at room temperature using standard two-electrode voltage clamp. The oocytes were clamped at −60 mV. The chamber (RC-1Z, Warner Instruments, Hamden, CT) was perfused with ND96 at 5–8 ml/min. Solutions were gravity-applied from 30 ml glass syringes with glass luer slips via Teflon tubing. The current responses were amplified with an OC-725C amplifier (Warner Instruments, Hamden, CT), digitized with a Digidata 1200 series digitizer (Molecular Devices), and stored using pClamp (Molecular Devices). Current traces were analyzed with Clampfit (Molecular Devices). […] The stock solution of muscimol was made at 20 mM in ND96 and stored at 4°C. The steroids were dissolved in DMSO at 10–20 mM and stored at room temperature.
# The converted current traces were analyzed in the framework of the three-state Resting-Open-Desensitized activation model ([Germann et al., 2019a]; [Germann et al., 2019b]). The model enables analysis and prediction of peak responses using four parameters that characterize the extent of constitutive activity (termed L; L = Resting/Open), affinity of the resting receptor to agonist (KC), affinity of the open receptor to agonist (KO), and the number of agonist binding sites (N). Analysis and prediction of steady-state responses requires an additional parameter, termed Q, that describes the equilibrium between open and desensitized receptors (Q = Open/Desensitized).
# The Popen of the peak response is expressed as: Popen,peak=1/1+LΓ and the Popen of the steady-state response as: Popen,steady−state=1/1+1/Q+LΓ where Γ=[(1+[X]/KC)/(1+[X]/KO)]^N
# [X]is the concentration of agonist present, and other terms are as described above. In practice, the value of LΓ was calculated using the experimentally determined Popen of the peak response, and then used as a fixed value in estimating Q from Popen,steady-state.
# The Pdesensitized was calculated using: Pdesensitized=1/1+Q+QLΓ
# Calculated probabilities (e.g. Popen, Pdesentitized) are reported as mean ± SD.
Compound,EC50 (α1(Q242L)β3 GABAAR) [nM],"Hill slope for modulation of [3H]muscimol binding (α1(Q242L)β3 GABAAR; α1(Q242L)β3, 3 nM [3H]muscimol)","Emax (% of control) of [3H]muscimol binding (α1(Q242L)β3 GABAAR; α1(Q242L)β3, 3 nM [3H]muscimol)","Hill slope for modulation of [3H]muscimol binding (α1β3(Y284F) GABAAR; α1β3(Y284F), 3 nM [3H]muscimol)","Emax (% of control) of [3H]muscimol binding (α1β3(Y284F) GABAAR; α1β3(Y284F), 3 nM [3H]muscimol)",Potentiation of GABA-elicited currents (α1β3 GABAAR),% of desensitization (reduction of steady-state current) (α1β3 GABAAR),also measured
"CC(=O)[C@H]1CC[C@H]2[C@@H]3CC[C@H]4C[C@H](O)CC[C@]4(C)[C@H]3CC[C@]12C [3α5αP, allopregnanolone]",2660,1.16 ± 0.37,**159.8 ± 10.9 % of control,0.87 ± 0.16,342.3 ± 13.9 % of control,potentiation,,Decrease of enhancement of [3H]muscimol binding by mutation (α1(Q242L)β3 GABAAR; β3(+)–α1(-) intersubunit site mutation vs WT): ~ 80%; EC50 (α1β3(Y284F) GABAAR): 190 ± 40 nM
"CC(=O)[C@H]1CC[C@H]2[C@@H]3CC[C@H]4C[C@@H](O)CC[C@]4(C)[C@H]3CC[C@]12C [3β5αP, epi-allopregnanolone]",270 ± 90,0.77 ± 0.21,204.3 ± 4.5 % of control,,**148.6 ± 4.9 % of control,absence of potentiation,~ 25% and 23.0 ± 2.8%,"Calculated steady-state Pdesensitized (α1β3 GABAAR; 20 nM muscimol + 3 µM 3β5αP): 0.2168; Steady-state Popen (α1β3 GABAAR; 20 nM muscimol + 3 µM 3β5αP): 0.009 ± 0.004; Popen of the steady-state response (α1β3 GABAAR; 1 mM GABA + 3 µM 3β5αP): 0.077 ± 0.013; Sum of (Popen + Pdesensitized) (α1β3 GABAAR; 1 mM GABA + 3 µM 3β5αP): 0.97; Steady-state Pdesensitized (α1β3 GABAAR; 1 mM GABA + 3 µM 3β5αP, Resting-Open-Desensitized model): 0.892; Effect on peak current amplitude (α1β3 GABAAR; co-application of 3 µM 3β5αP with 1 mM GABA): does not reduce; Effect on decay rate of GABA-elicited currents (α1β3 GABAAR; prolonged co-application of 1 mM GABA + 3 µM 3β5αP): increases"
C#CCCO[C@H]1CC[C@H]2[C@@H]3CC[C@H]4CC5(CC[C@]4(C)[C@H]3CC[C@]12C)N=N5 [KK148],,1.24 ± 0.12,434.5 ± 5.6 % of control,1.35 ± 0.13,**357.2 ± 8.1 % of control,absence of potentiation,27.2 ± 6.0%,"EC50 (α1(Q242L)β3 GABAAR; α1(Q242L)β3, 3 nM [3H]muscimol, read-out: EC50 for modulation of [3H]muscimol binding): 2200 ± 310 nM; EC50 (α1β3(Y284F) GABAAR; α1β3(Y284F), 3 nM [3H]muscimol, read-out: EC50 for modulation of [3H]muscimol binding): 1790 ± 440 nM"
C#CCCO[C@@H]1CC[C@H]2[C@@H]3CC[C@H]4CC5(CC[C@]4(C)[C@H]3CC[C@]12C)N=N5 [KK150],,,,,,absence of potentiation,2.1 ± 0.7%,
NCc1cc(=O)[nH]o1 [muscimol],,,,,,,,"Bmax of [3H]muscimol binding isotherm (α1(Q242L)β3 GABAAR; α1(Q242L)β3): 9.9 ± 0.6 (P > 0.99 vs. WT) pmol/mg; Kd (α1(Q242L)β3 GABAAR; α1(Q242L)β3, read-out: Kd of [3H]muscimol binding isotherm): 44.3 ± 4.6 nM; Bmax of [3H]muscimol binding isotherm (α1β3(Y284F) GABAAR; α1β3(Y284F)): 10.6 ± 0.9 (P > 0.99 vs. WT) pmol/mg; Kd (α1β3(Y284F) GABAAR; α1β3(Y284F), read-out: Kd of [3H]muscimol binding isotherm): 46.6 ± 3.8 nM; Peak Popen (α1β3 GABAAR; 20 nM muscimol): 0.012 ± 0.004; Calculated steady-state Pdesensitized (α1β3 GABAAR; 20 nM muscimol alone): 0.1001; Steady-state Popen (α1β3 GABAAR; 20 nM muscimol alone): 0.011 ± 0.004"
